Measurements taken from the NIST ThermoML archive (doi:10.1021/je5004912).
Numbers after ± are expanded uncertainties.

Assay: excess molar enthalpy (molar enthalpy of mixing); xn = mol fraction of the nth substance listed
Conditions: 101 kPa, Liquid, Flow calorimetry

## CC(C)CC(C)(C)C [2,2,4-trimethylpentane] + CCCO
298.15 K, x1 = 0.05
  excess molar enthalpy: 0.0208 ± 0.00239 kcal/mol
298.15 K, x1 = 0.1001
  excess molar enthalpy: 0.0399 ± 0.00239 kcal/mol
298.15 K, x1 = 0.1505
  excess molar enthalpy: 0.0576 ± 0.00263 kcal/mol
298.15 K, x1 = 0.2003
  excess molar enthalpy: 0.0736 ± 0.00263 kcal/mol
298.15 K, x1 = 0.2501
  excess molar enthalpy: 0.0882 ± 0.00263 kcal/mol
298.15 K, x1 = 0.2999
  excess molar enthalpy: 0.102 ± 0.00263 kcal/mol
298.15 K, x1 = 0.3499
  excess molar enthalpy: 0.114 ± 0.00263 kcal/mol
298.15 K, x1 = 0.4006
  excess molar enthalpy: 0.126 ± 0.00263 kcal/mol
298.15 K, x1 = 0.4503
  excess molar enthalpy: 0.136 ± 0.00263 kcal/mol
298.15 K, x1 = 0.4997
  excess molar enthalpy: 0.144 ± 0.00263 kcal/mol
298.15 K, x1 = 0.5504
  excess molar enthalpy: 0.151 ± 0.00263 kcal/mol
298.15 K, x1 = 0.5998
  excess molar enthalpy: 0.155 ± 0.00263 kcal/mol
298.15 K, x1 = 0.65
  excess molar enthalpy: 0.157 ± 0.00263 kcal/mol
298.15 K, x1 = 0.7008
  excess molar enthalpy: 0.157 ± 0.00263 kcal/mol
298.15 K, x1 = 0.7502
  excess molar enthalpy: 0.153 ± 0.00263 kcal/mol
298.15 K, x1 = 0.7994
  excess molar enthalpy: 0.146 ± 0.00263 kcal/mol
298.15 K, x1 = 0.8499
  excess molar enthalpy: 0.135 ± 0.00263 kcal/mol
298.15 K, x1 = 0.8998
  excess molar enthalpy: 0.12 ± 0.00263 kcal/mol
298.15 K, x1 = 0.9506
  excess molar enthalpy: 0.0937 ± 0.00263 kcal/mol
313.15 K, x1 = 0.05
  excess molar enthalpy: 0.0282 ± 0.00263 kcal/mol
313.15 K, x1 = 0.1
  excess molar enthalpy: 0.0543 ± 0.00263 kcal/mol
313.15 K, x1 = 0.1504
  excess molar enthalpy: 0.0784 ± 0.00263 kcal/mol
313.15 K, x1 = 0.2002
  excess molar enthalpy: 0.1 ± 0.00263 kcal/mol
313.15 K, x1 = 0.25
  excess molar enthalpy: 0.12 ± 0.00263 kcal/mol
313.15 K, x1 = 0.2997
  excess molar enthalpy: 0.139 ± 0.00263 kcal/mol
313.15 K, x1 = 0.3498
  excess molar enthalpy: 0.156 ± 0.00287 kcal/mol
313.15 K, x1 = 0.4004
  excess molar enthalpy: 0.172 ± 0.00287 kcal/mol
313.15 K, x1 = 0.4502
  excess molar enthalpy: 0.185 ± 0.00287 kcal/mol
313.15 K, x1 = 0.4995
  excess molar enthalpy: 0.195 ± 0.00287 kcal/mol
313.15 K, x1 = 0.5503
  excess molar enthalpy: 0.203 ± 0.00287 kcal/mol
313.15 K, x1 = 0.5997
  excess molar enthalpy: 0.209 ± 0.00287 kcal/mol
313.15 K, x1 = 0.6498
  excess molar enthalpy: 0.211 ± 0.00287 kcal/mol
313.15 K, x1 = 0.7007
  excess molar enthalpy: 0.211 ± 0.00287 kcal/mol
313.15 K, x1 = 0.7501
  excess molar enthalpy: 0.206 ± 0.00287 kcal/mol
313.15 K, x1 = 0.7993
  excess molar enthalpy: 0.197 ± 0.00287 kcal/mol
313.15 K, x1 = 0.8499
  excess molar enthalpy: 0.184 ± 0.00287 kcal/mol
313.15 K, x1 = 0.8998
  excess molar enthalpy: 0.163 ± 0.00287 kcal/mol
313.15 K, x1 = 0.9506
  excess molar enthalpy: 0.124 ± 0.00287 kcal/mol

## CCCCCCC [heptane] + CCCO
298.15 K, x1 = 0.0503
  excess molar enthalpy: 0.0229 ± 0.00239 kcal/mol
298.15 K, x1 = 0.1002
  excess molar enthalpy: 0.0435 ± 0.00263 kcal/mol
298.15 K, x1 = 0.1501
  excess molar enthalpy: 0.0619 ± 0.00263 kcal/mol
298.15 K, x1 = 0.2001
  excess molar enthalpy: 0.0786 ± 0.00263 kcal/mol
298.15 K, x1 = 0.2499
  excess molar enthalpy: 0.0935 ± 0.00263 kcal/mol
298.15 K, x1 = 0.3004
  excess molar enthalpy: 0.107 ± 0.00263 kcal/mol
298.15 K, x1 = 0.3505
  excess molar enthalpy: 0.119 ± 0.00263 kcal/mol
298.15 K, x1 = 0.4005
  excess molar enthalpy: 0.13 ± 0.00263 kcal/mol
298.15 K, x1 = 0.4501
  excess molar enthalpy: 0.139 ± 0.00263 kcal/mol
298.15 K, x1 = 0.4997
  excess molar enthalpy: 0.147 ± 0.00263 kcal/mol
298.15 K, x1 = 0.5505
  excess molar enthalpy: 0.153 ± 0.00263 kcal/mol
298.15 K, x1 = 0.5996
  excess molar enthalpy: 0.157 ± 0.00263 kcal/mol
298.15 K, x1 = 0.6506
  excess molar enthalpy: 0.158 ± 0.00263 kcal/mol
298.15 K, x1 = 0.7005
  excess molar enthalpy: 0.157 ± 0.00263 kcal/mol
298.15 K, x1 = 0.7504
  excess molar enthalpy: 0.153 ± 0.00263 kcal/mol
298.15 K, x1 = 0.8001
  excess molar enthalpy: 0.145 ± 0.00263 kcal/mol
298.15 K, x1 = 0.8493
  excess molar enthalpy: 0.134 ± 0.00263 kcal/mol
298.15 K, x1 = 0.8993
  excess molar enthalpy: 0.118 ± 0.00263 kcal/mol
298.15 K, x1 = 0.9503
  excess molar enthalpy: 0.0913 ± 0.00263 kcal/mol
313.15 K, x1 = 0.0503
  excess molar enthalpy: 0.0292 ± 0.00263 kcal/mol
313.15 K, x1 = 0.1001
  excess molar enthalpy: 0.0564 ± 0.00263 kcal/mol
313.15 K, x1 = 0.15
  excess molar enthalpy: 0.081 ± 0.00263 kcal/mol
313.15 K, x1 = 0.2
  excess molar enthalpy: 0.103 ± 0.00263 kcal/mol
313.15 K, x1 = 0.2498
  excess molar enthalpy: 0.124 ± 0.00263 kcal/mol
313.15 K, x1 = 0.3004
  excess molar enthalpy: 0.142 ± 0.00263 kcal/mol
313.15 K, x1 = 0.3503
  excess molar enthalpy: 0.159 ± 0.00287 kcal/mol
313.15 K, x1 = 0.4003
  excess molar enthalpy: 0.174 ± 0.00287 kcal/mol
313.15 K, x1 = 0.4498
  excess molar enthalpy: 0.186 ± 0.00287 kcal/mol
313.15 K, x1 = 0.4996
  excess molar enthalpy: 0.196 ± 0.00287 kcal/mol
313.15 K, x1 = 0.5503
  excess molar enthalpy: 0.203 ± 0.00287 kcal/mol
313.15 K, x1 = 0.5995
  excess molar enthalpy: 0.208 ± 0.00287 kcal/mol
313.15 K, x1 = 0.6505
  excess molar enthalpy: 0.211 ± 0.00287 kcal/mol
313.15 K, x1 = 0.7004
  excess molar enthalpy: 0.209 ± 0.00287 kcal/mol
313.15 K, x1 = 0.7503
  excess molar enthalpy: 0.204 ± 0.00287 kcal/mol
313.15 K, x1 = 0.8
  excess molar enthalpy: 0.195 ± 0.00287 kcal/mol
313.15 K, x1 = 0.8492
  excess molar enthalpy: 0.18 ± 0.00287 kcal/mol
313.15 K, x1 = 0.8993
  excess molar enthalpy: 0.16 ± 0.00287 kcal/mol
313.15 K, x1 = 0.9503
  excess molar enthalpy: 0.123 ± 0.00287 kcal/mol

## C=CCCCC [hex-1-ene] + CCCO
298.15 K, x1 = 0.0501
  excess molar enthalpy: 0.0146 ± 0.00239 kcal/mol
298.15 K, x1 = 0.1003
  excess molar enthalpy: 0.0301 ± 0.00239 kcal/mol
298.15 K, x1 = 0.1501
  excess molar enthalpy: 0.0459 ± 0.00239 kcal/mol
298.15 K, x1 = 0.2002
  excess molar enthalpy: 0.0612 ± 0.00263 kcal/mol
298.15 K, x1 = 0.2501
  excess molar enthalpy: 0.0762 ± 0.00263 kcal/mol
298.15 K, x1 = 0.3004
  excess molar enthalpy: 0.0913 ± 0.00263 kcal/mol
298.15 K, x1 = 0.3501
  excess molar enthalpy: 0.106 ± 0.00263 kcal/mol
298.15 K, x1 = 0.4007
  excess molar enthalpy: 0.119 ± 0.00263 kcal/mol
298.15 K, x1 = 0.4501
  excess molar enthalpy: 0.132 ± 0.00263 kcal/mol
298.15 K, x1 = 0.5001
  excess molar enthalpy: 0.142 ± 0.00263 kcal/mol
298.15 K, x1 = 0.5504
  excess molar enthalpy: 0.152 ± 0.00263 kcal/mol
298.15 K, x1 = 0.5998
  excess molar enthalpy: 0.159 ± 0.00287 kcal/mol
298.15 K, x1 = 0.6505
  excess molar enthalpy: 0.163 ± 0.00287 kcal/mol
298.15 K, x1 = 0.6998
  excess molar enthalpy: 0.165 ± 0.00287 kcal/mol
298.15 K, x1 = 0.75
  excess molar enthalpy: 0.163 ± 0.00287 kcal/mol
298.15 K, x1 = 0.7999
  excess molar enthalpy: 0.158 ± 0.00287 kcal/mol
298.15 K, x1 = 0.8505
  excess molar enthalpy: 0.147 ± 0.00263 kcal/mol
298.15 K, x1 = 0.9004
  excess molar enthalpy: 0.131 ± 0.00263 kcal/mol
298.15 K, x1 = 0.9508
  excess molar enthalpy: 0.102 ± 0.00263 kcal/mol
313.15 K, x1 = 0.0501
  excess molar enthalpy: 0.022 ± 0.00263 kcal/mol
313.15 K, x1 = 0.1002
  excess molar enthalpy: 0.0445 ± 0.00263 kcal/mol
313.15 K, x1 = 0.1501
  excess molar enthalpy: 0.0667 ± 0.00263 kcal/mol
313.15 K, x1 = 0.2001
  excess molar enthalpy: 0.0884 ± 0.00263 kcal/mol
313.15 K, x1 = 0.2499
  excess molar enthalpy: 0.109 ± 0.00263 kcal/mol
313.15 K, x1 = 0.3003
  excess molar enthalpy: 0.13 ± 0.00263 kcal/mol
313.15 K, x1 = 0.3499
  excess molar enthalpy: 0.148 ± 0.00287 kcal/mol
313.15 K, x1 = 0.4006
  excess molar enthalpy: 0.166 ± 0.00287 kcal/mol
313.15 K, x1 = 0.4499
  excess molar enthalpy: 0.181 ± 0.00287 kcal/mol
313.15 K, x1 = 0.4998
  excess molar enthalpy: 0.195 ± 0.00287 kcal/mol
313.15 K, x1 = 0.5502
  excess molar enthalpy: 0.206 ± 0.00287 kcal/mol
313.15 K, x1 = 0.5996
  excess molar enthalpy: 0.214 ± 0.00287 kcal/mol
313.15 K, x1 = 0.6503
  excess molar enthalpy: 0.218 ± 0.00287 kcal/mol
313.15 K, x1 = 0.6996
  excess molar enthalpy: 0.22 ± 0.00287 kcal/mol
313.15 K, x1 = 0.75
  excess molar enthalpy: 0.217 ± 0.00287 kcal/mol
313.15 K, x1 = 0.7998
  excess molar enthalpy: 0.209 ± 0.00287 kcal/mol
313.15 K, x1 = 0.8505
  excess molar enthalpy: 0.195 ± 0.00287 kcal/mol
313.15 K, x1 = 0.9004
  excess molar enthalpy: 0.172 ± 0.00287 kcal/mol
313.15 K, x1 = 0.9508
  excess molar enthalpy: 0.131 ± 0.00287 kcal/mol
